Experimental findings from patent publication US9271929B2, “Block copolymers and uses thereof” (École Polytechnique Fédérale de Lausanne (EPFL), priority 2008, dated 2016) are described below.

Series [1] can be described thus: Encapsulation efficiency of small molecule pharmaceutical agents using excipient formulations. The series is classed as physicochemical. Particulars: PEG-PPS system. As to the method: Samples used in Table 2 were prepared as follows. 10 mg of PEG-PPS was added to a 1.5 mL centrifuge tube with either 90 mg of PEG600 or DBU-HCl, and 2 mg of either paclitaxel or dexamethasone. This was heated at 95° C. for 15 min and mixed thoroughly. After cooling to RT, the blend was slowly diluted to 1 mL with distilled water. The free pharmaceutical agent was pelleted via centrifugation for 10 minutes at 10,000 g, and the pellet and supernatant were separately freeze dried, and analyzed in THF via gel permeation chromatography. Dexamethasone and paclitaxel results were quantified using a standard curve.

The test system of series [2] is caco-2 cells (enterocytes) and lymphatic endothelial cells (LECs). Nature of the series: Transport in coculture model of gut lymphatic uptake. Particulars: caco-2/LEC coculture. The series is classed as in vitro ADME. As to the method:
Given that PEG-PPS nanoparticles can survive harsh conditions such as gastric pH, we contemplated their transport in the gut lymphatics, determining their potential to be processed by mechanisms related to fat uptake in the gut. This was measured using a coculture model of caco-2 cells (enterocytes) and lymphatic endothelial cells (LECs), allowing full characterization of uptake, packaging, and transit (collectively referred to as transport). It was determined that the surface characteristics of PPS-based nanoparticles can be engineered to provide for effective transport: for example, particles on which about 10% of the terminal chain groups were substituted with a carboxyl functionality were transported at a level 5-fold higher than that of equivalent particles lacking a surface charge. Other surface charging moieties, such as sulfates and sulfones, are similarly effective after optimization.
A general note: Caco-2 monolayers are a common model of the intestinal barrier.

`C[C@@H]1[C@H](O)[C@@H](C)/C=C/C=C/C=C/C=C/C=C/C=C/C=C/[C@H](O[C@@H]2O[C@H](C)[C@@H](O)[C@H](N)[C@@H]2O)C[C@@H]2O[C@](O)(C[C@@H](O)C[C@@H](O)[C@H](O)CC[C@@H](O)C[C@@H](O)CC(=O)O[C@H]1C)C[C@H](O)[C@H]2C(=O)O` [amphotericin B]: the “Encapsulation, method of the invention versus solvent dispersion” value in series [1] was “more efficiently encapsulated via solvent dispersion”.

`CO[C@H]1C[C@@H]2CC[C@@H](C)[C@@](O)(O2)C(=O)C(=O)N2CCCC[C@H]2C(=O)O[C@H]([C@H](C)C[C@@H]2CC[C@@H](OCCO)[C@H](OC)C2)CC(=O)[C@H](C)/C=C(\C)[C@@H](O)[C@@H](OC)C(=O)[C@H](C)C[C@H](C)/C=C/C=C/C=C/1C` [everolimus]: the “Encapsulation, method of the invention versus solvent dispersion” value in series [1] is recorded as “efficiently encapsulated”.

With `CC(=O)O[C@H]1C(=O)[C@@]2(C)[C@H]([C@H](OC(=O)c3ccccc3)[C@]3(O)C[C@H](OC(=O)[C@H](O)[C@@H](NC(=O)c4ccccc4)c4ccccc4)C(C)=C1C3(C)C)[C@]1(OC(C)=O)CO[C@@H]1C[C@@H]2O` [paclitaxel], the “Encapsulation, method of the invention versus solvent dispersion” value in series [1] was “more efficiently encapsulated via the method of the invention”.

With dextran, the Uptake / transport result in series [2] was “not well transported”.
